Tested on: Human umbilical vein endothelial cells (HUVECs)
Assay: eNOS activity analysis: NO, ONOO− and NO/ONOO− release from HUVECs of 50 genotyped donors in response to LA-419 (Example 2)
Assay type: cell-based
Conditions: for Net increase over control ONOO− (mean ± sd) / Peak release NO (mean ± sd) / Peak release NO/ONOO− (mean ± sd) / Peak release ONOO− (mean ± sd) / Net increase over control NO (mean ± sd) / Net increase over control NO/ONOO− (mean ± sd) / % Change Ratio, % Change NO/% Change ONOO− (mean ± sd): LA-419 1 μM; for % Change NO (mean ± sd) / % Change NO/ONOO− (mean ± sd) / % Change ONOO− (mean ± sd): LA-419 5 μM vs control
Protocol: Concurrent measurements of NO and ONOO^− were carried out with tandem electrochemical nanosensors combined into one working unit with a total diameter of 200-500 nm (FIG. 1). Their design was based on previously developed and well-characterized chemically modified carbon-fiber technology (Malinski and Taha, 1992; Lvovich and Scheeline, 1997). Each of the nanosensors was made by depositing a sensing material on the tip of a carbon fiber (length 4-5 μm, diameter 0.2-0.5 μm). The fibers were sealed with nonconductive epoxy and electrically connected to copper wires with conductive silver epoxy. A conductive film of polymeric nickel (II) tetrakis(3-methoxy-4-hydroxyphenyl)porphyrin for the NO-sensor and polymeric film of Mn (III) [2.2]paracyclophanylporphyrin was used for the ONOO^−-sensor.
A module of NO/ONOO^− nanosensors (diameter 1-2 μm) with a platinum wire (0.1 mm) counter electrode and saturated calomel reference electrode (SCE) were applied. Differential pulse voltammetry (DPV) and amperometry were performed with a computer-based Gamry VFP600 multichannel potentiostat. DPV was used to measure the basal NO and ONOO^− concentrations, and amperometry was used to measure changes in NO and ONOO^− concentrations from its basal level with time. The DPV current at the peak potential characteristic for NO oxidation (0.65 V) and ONOO^− reduction (−0.45 V) was directly proportional to the local concentrations of these compounds in the immediate vicinity of the sensor. Linear calibration curves (current vs. concentration) were constructed for each sensor from 10 nM to 3 μM before and after measurements with aliquots of NO and ONOO^− standard solutions, respectively. The detection limit of the sensors was 1.0 nM.
The quantification of each analyte (concentration in nM) was performed using a maximum current from amperograms and standard calibration curves. A reproducibility of measurements with nanosensors is relatively high (between 5-12%). […] The sensors were slowly raised 5±2 μm from the surface of a single endothelial cell. The eNOS agonist, calcium ionophore A23187 (CaI) as well as the different drugs were then added to the surrounding media at the cell surface with a nanoinjector that was also positioned by a computer controlled-micromanipulator.
This example describes the genotype-specific response of the three major eNOS variants to 1 μM and 5 μM concentrations of LA-419. The three major genetic polymorphisms studied were the Glu298Asp variant (E298D or 894G→T) in exon 7 of […], the −786T→C variant in the promoter region, and the intron 4 polymorphism (VNTR). All of these variants have possible effects on the cardiovascular system and endothelial dysfunction. For this study, human umbilical vein endothelial cells (HUVECs) from 50 donors between 18 and 32 years of age were used.
For the analysis several analysis techniques were employed. First, the effect of genotype on NO and ONOO^− release was explored within the different concentrations of LA-419 (control, 1 μM, 5 μM), calculated as the average peak release (nmols/L) of NO, ONOO^−, and NO/ONOO^−. The effect of genotype on the net increase in NO, ONOO^−, and NO/ONOO^− for LA-419 (1 μM and 5 μM) as compared to control was also measured. In addition, an analysis was done on the effect of genotype on the % change in NO, ONOO^−, and NO/ONOO^− production for LA-419 (1 μM and 5 μM), calculated as:
% Change=[(avg. LA-419−avg. control)/(avg. control)]*100
Finally, an evaluation was undertaken concerning the effect of genotype on the production of NO, ONOO^−, and NO/ONOO^− as the fold difference of control for LA-419 (1 μM and 5 μM), calculated as:
Fold Difference=(avg. LA-419)/(avg. control)
Within each calculation technique the results were compared for statistical significance using a non-parametric ANOVA Kruskal-Wallace test or a non-parametric Mann-Whitney U test. Statistical significance was set at a p-value <0.05 in a two-tailed distribution. […]

[1] = HUVECs Intron 4 variant b/a, a/a, c/c
[2] = HUVECs T-786C variant T/C & C/C
[3] = HUVEC donor Race Caucasian/Black

For CC(=O)SC1COC2C(O[N+](=O)[O-])COC12 (stereo not drawn) [LA-419, S-(6-Nitro-oxi-hexahydro-furo[3,2-b]furan-3-1-il)thioacetate], the “Net increase over control ONOO− (mean ± sd)” value (HUVECs Intron 4 variant b/a) was −37.57 (99.15) nmols/L, the “Peak release NO (mean ± sd)” value (HUVECs Intron 4 variant b/a) was 377.23 (69.05) nmols/L and the “Peak release NO/ONOO− (mean ± sd)” value (HUVECs Intron 4 variant b/a) was 1.25 (0.46). For the same molecule, the “Peak release ONOO− (mean ± sd)” value (HUVECs Intron 4 variant b/a) was 330.47 (88.93) nmols/L, the “Net increase over control NO (mean ± sd)” value [1] was 27.83 (86.07) nmols/L and the “Net increase over control NO/ONOO− (mean ± sd)” value [1] was 0.16 (0.46). For the same molecule, the “Net increase over control ONOO− (mean ± sd)” value [1] was −21.43 (98.29) nmols/L, the “Peak release NO (mean ± sd)” value [1] was 366.00 (71.50) nmols/L and the “Peak release NO/ONOO− (mean ± sd)” value [1] was 1.15 (0.48). The “Peak release ONOO− (mean ± sd)” value [1] was 356.55 (98.40) nmols/L, the “Net increase over control NO (mean ± sd)” value (HUVECs Intron 4 variant b/b) was 39.66 (70.27) nmols/L and the “Net increase over control NO/ONOO− (mean ± sd)” value (HUVECs Intron 4 variant b/b) was 0.29 (0.47). The “Net increase over control ONOO− (mean ± sd)” value (HUVECs Intron 4 variant b/b) was −51.71 (108.03) nmols/L, the “Peak release NO (mean ± sd)” value (HUVECs Intron 4 variant b/b) was 393.18 (77.21) nmols/L and the “Peak release NO/ONOO− (mean ± sd)” value (HUVECs Intron 4 variant b/b) was 1.33 (0.42). For the same molecule, the “Peak release ONOO− (mean ± sd)” value (HUVECs Intron 4 variant b/b) was 317.60 (74.77) nmols/L, the “Net increase over control NO (mean ± sd)” value (HUVECs Intron 4 variant c/c) was −98.67 (0) nmols/L and the “Net increase over control NO/ONOO− (mean ± sd)” value (HUVECs Intron 4 variant c/c) was −0.23 (0). For the same molecule, the “Net increase over control ONOO− (mean ± sd)” value (HUVECs Intron 4 variant c/c) was −2.67 (0) nmols/L, the “Peak release NO (mean ± sd)” value (HUVECs Intron 4 variant c/c) was 270.00 (0) nmols/L and the “Peak release NO/ONOO− (mean ± sd)” value (HUVECs Intron 4 variant c/c) was 0.64 (0). For the same molecule, the “Peak release ONOO− (mean ± sd)” value (HUVECs Intron 4 variant c/c) was 423.67 (0) nmols/L, the “% Change Ratio, % Change NO/% Change ONOO− (mean ± sd)” value (HUVECs T-786C variant C/C) was −0.80 (1.04) and the “Net increase over control NO (mean ± sd)” value (HUVECs T-786C variant C/C) was 2.08 (39.61) nmols/L. The “Net increase over control NO/ONOO− (mean ± sd)” value (HUVECs T-786C variant C/C) was −0.48 (0.48), the “Net increase over control ONOO− (mean ± sd)” value (HUVECs T-786C variant C/C) was 25.25 (135.63) nmols/L and the “Peak release NO (mean ± sd)” value (HUVECs T-786C variant C/C) was 334.25 (68.06) nmols/L. For the same molecule, the “Peak release NO/ONOO− (mean ± sd)” value (HUVECs T-786C variant C/C) was 0.88 (0.50), the “Peak release ONOO− (mean ± sd)” value (HUVECs T-786C variant C/C) was 430.17 (124.82) nmols/L and the “% Change Ratio, % Change NO/% Change ONOO− (mean ± sd)” value (HUVECs T-786C variant T/C) was −1.06 (0.82). For the same molecule, the “Net increase over control NO (mean ± sd)” value (HUVECs T-786C variant T/C) was 46.77 (81.32) nmols/L, the “Net increase over control NO/ONOO− (mean ± sd)” value (HUVECs T-786C variant T/C) was −0.99 (0.94) and the “Net increase over control ONOO− (mean ± sd)” value (HUVECs T-786C variant T/C) was −61.09 (111.68) nmols/L. For the same molecule, the “Peak release NO (mean ± sd)” value (HUVECs T-786C variant T/C) was 396.32 (73.63) nmols/L, the “Peak release NO/ONOO− (mean ± sd)” value (HUVECs T-786C variant T/C) was 1.35 (0.44) and the “Peak release ONOO− (mean ± sd)” value (HUVECs T-786C variant T/C) was 315.74 (78.13) nmols/L. For the same molecule, the “Net increase over control NO (mean ± sd)” value [2] was 40.15 (77.70) nmols/L, the “Net increase over control NO/ONOO− (mean ± sd)” value [2] was −0.91 (0.90) and the “Net increase over control ONOO− (mean ± sd)” value [2] was −48.30 (116.85) nmols/L. For the same molecule, the “Peak release NO (mean ± sd)” value [2] was 387.12 (75.01) nmols/L, the “Peak release NO/ONOO− (mean ± sd)” value [2] was 1.28 (0.47) and the “Peak release ONOO− (mean ± sd)” value [2] was 332.69 (93.16) nmols/L. The “% Change Ratio, % Change NO/% Change ONOO− (mean ± sd)” value (HUVECs T-786C variant T/T) was 1.06 (9.40), the “Net increase over control NO (mean ± sd)” value (HUVECs T-786C variant T/T) was 30.80 (64.85) nmols/L and the “Net increase over control NO/ONOO− (mean ± sd)” value (HUVECs T-786C variant T/T) was 0.77 (8.26). The “Net increase over control ONOO− (mean ± sd)” value (HUVECs T-786C variant T/T) was −27.14 (82.12) nmols/L, the “Peak release NO (mean ± sd)” value (HUVECs T-786C variant T/T) was 380.73 (75.61) nmols/L and the “Peak release NO/ONOO− (mean ± sd)” value (HUVECs T-786C variant T/T) was 1.22 (0.43). For the same molecule, the “Peak release ONOO− (mean ± sd)” value (HUVECs T-786C variant T/T) was 335.82 (80.98) nmols/L, the “ONOO− production versus control” value (LA-419 5 μM (Table b2)) was “decrease” and the “% Change NO (mean ± sd)” value [3] was 16.93 (4.34) %. The “% Change NO/ONOO− (mean ± sd)” value [3] was 58.92 (16.01) %, the “% Change ONOO− (mean ± sd)” value [3] was −25.30 (9.90) % and the “% Change NO (mean ± sd)” value (HUVEC donor Race Not Reported) was 18.69 (5.53) %. The “% Change NO/ONOO− (mean ± sd)” value (HUVEC donor Race Not Reported) was 75.55 (20.43) %, the “% Change ONOO− (mean ± sd)” value (HUVEC donor Race Not Reported) was −31.56 (5.34) % and the “% Change NO (mean ± sd)” value (HUVEC donor alpha) was 12.82 (5.82) %. The “% Change NO/ONOO− (mean ± sd)” value (HUVEC donor alpha) was 36.30 (14.59) %, the “% Change ONOO− (mean ± sd)” value (HUVEC donor alpha) was −16.43 (6.22) % and the “% Change NO (mean ± sd)” value (HUVEC donor beta) was 14.30 (6.78) %. The “% Change NO/ONOO− (mean ± sd)” value (HUVEC donor beta) was 39.65 (12.24) %, the “% Change ONOO− (mean ± sd)” value (HUVEC donor beta) was −17.84 (5.90) % and the “% Change NO (mean ± sd)” value (HUVEC donor delta) was 13.97 (0) %. For the same molecule, the “% Change NO/ONOO− (mean ± sd)” value (HUVEC donor delta) was 57.83 (0) %, the “% Change ONOO− (mean ± sd)” value (HUVEC donor delta) was −27.79 (0) % and the “% Change NO (mean ± sd)” value (HUVEC donor gamma) was 17.23 (7.65) %. For the same molecule, the “% Change NO/ONOO− (mean ± sd)” value (HUVEC donor gamma) was 57.79 (12.24) %, the “% Change ONOO− (mean ± sd)” value (HUVEC donor gamma) was −25.17 (5.79) % and the “% Change NO (mean ± sd)” value (HUVECs G894T variant G/G) was 15.93 (6.37) %. For the same molecule, the “% Change NO/ONOO− (mean ± sd)” value (HUVECs G894T variant G/G) was 47.91 (17.67) %, the “% Change ONOO− (mean ± sd)” value (HUVECs G894T variant G/G) was −20.65 (7.38) % and the “% Change NO (mean ± sd)” value (HUVECs G894T variant G/T) was 13.43 (6.31) %. The “% Change NO/ONOO− (mean ± sd)” value (HUVECs G894T variant G/T) was 38.86 (13.20) %, the “% Change ONOO− (mean ± sd)” value (HUVECs G894T variant G/T) was −17.85 (6.26) % and the “% Change NO (mean ± sd)” value (HUVECs G894T variant T/T) was 11.67 (6.86) %. For the same molecule, the “% Change NO/ONOO− (mean ± sd)” value (HUVECs G894T variant T/T) was 39.03 (13.43) %, the “% Change ONOO− (mean ± sd)” value (HUVECs G894T variant T/T) was −19.03 (8.40) % and the “% Change NO (mean ± sd)” value (HUVECs Intron 4 variant a/a) was 13.60 (3.88) %. For the same molecule, the “% Change NO/ONOO− (mean ± sd)” value (HUVECs Intron 4 variant a/a) was 36.75 (3.58) %, the “% Change ONOO− (mean ± sd)” value (HUVECs Intron 4 variant a/a) was −16.60 (3.31) % and the “% Change NO (mean ± sd)” value (HUVECs Intron 4 variant b/a) was 16.81 (6.88) %. The “% Change NO/ONOO− (mean ± sd)” value (HUVECs Intron 4 variant b/a) was 45.81 (14.36) %.

Reference: patent publication US20130131161A1, “METHODS AND COMPOSITIONS FOR CARDIOVASCULAR DISEASES AND CONDITIONS” (priority 2009, published 2013)
